pIC50: −log10 of the molar value.
Legend:
Assay type in all cases: biochemical
Btk = Btk (Homo sapiens, UniProt Q06187); test: Btk kinase activity, TR-FRET assay; settings: read-out: Btk (IC50)
Summary of the method: (§1)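 Enzyme (Btk 0.5 nM; Lck 6 nM) reacted 1 h with inhibitor, ATP at Km and biotin-peptide substrate in pH 7.4 buffer, 10% DMSO. Phosphopeptide detected by Eu-p-Tyr100 antibody plus streptavidin-APC (665/615 nm). IC50 calculated from fitted Ki(app) via ATP/Km correction plus half total enzyme.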

Lck = Lck (Homo sapiens, UniProt P06239); test: Lck kinase activity, TR-FRET assay; settings: read-out: LCK (IC50)
Chain of Lck (P06239 whole entry, species assumed): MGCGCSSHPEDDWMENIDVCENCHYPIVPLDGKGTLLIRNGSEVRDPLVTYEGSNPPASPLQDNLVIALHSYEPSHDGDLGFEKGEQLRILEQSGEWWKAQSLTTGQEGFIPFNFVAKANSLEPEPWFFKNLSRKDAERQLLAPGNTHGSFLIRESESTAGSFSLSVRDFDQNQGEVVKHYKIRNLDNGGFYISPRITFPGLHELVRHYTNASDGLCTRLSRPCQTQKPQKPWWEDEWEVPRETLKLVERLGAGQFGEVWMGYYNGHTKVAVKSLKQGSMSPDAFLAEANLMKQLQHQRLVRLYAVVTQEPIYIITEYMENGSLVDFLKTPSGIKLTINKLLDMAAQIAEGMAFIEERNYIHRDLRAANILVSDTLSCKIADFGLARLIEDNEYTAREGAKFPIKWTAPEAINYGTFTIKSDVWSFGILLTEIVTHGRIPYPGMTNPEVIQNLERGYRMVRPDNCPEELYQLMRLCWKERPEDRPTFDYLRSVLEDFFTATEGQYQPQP
Summary of the method: as §1

EGFR = EGFR (Homo sapiens, UniProt P00533); test: Inhibition of a panel of kinases, in vitro HotSpot kinase assay: EGFR
Chain of EGFR (P00533 25-1210): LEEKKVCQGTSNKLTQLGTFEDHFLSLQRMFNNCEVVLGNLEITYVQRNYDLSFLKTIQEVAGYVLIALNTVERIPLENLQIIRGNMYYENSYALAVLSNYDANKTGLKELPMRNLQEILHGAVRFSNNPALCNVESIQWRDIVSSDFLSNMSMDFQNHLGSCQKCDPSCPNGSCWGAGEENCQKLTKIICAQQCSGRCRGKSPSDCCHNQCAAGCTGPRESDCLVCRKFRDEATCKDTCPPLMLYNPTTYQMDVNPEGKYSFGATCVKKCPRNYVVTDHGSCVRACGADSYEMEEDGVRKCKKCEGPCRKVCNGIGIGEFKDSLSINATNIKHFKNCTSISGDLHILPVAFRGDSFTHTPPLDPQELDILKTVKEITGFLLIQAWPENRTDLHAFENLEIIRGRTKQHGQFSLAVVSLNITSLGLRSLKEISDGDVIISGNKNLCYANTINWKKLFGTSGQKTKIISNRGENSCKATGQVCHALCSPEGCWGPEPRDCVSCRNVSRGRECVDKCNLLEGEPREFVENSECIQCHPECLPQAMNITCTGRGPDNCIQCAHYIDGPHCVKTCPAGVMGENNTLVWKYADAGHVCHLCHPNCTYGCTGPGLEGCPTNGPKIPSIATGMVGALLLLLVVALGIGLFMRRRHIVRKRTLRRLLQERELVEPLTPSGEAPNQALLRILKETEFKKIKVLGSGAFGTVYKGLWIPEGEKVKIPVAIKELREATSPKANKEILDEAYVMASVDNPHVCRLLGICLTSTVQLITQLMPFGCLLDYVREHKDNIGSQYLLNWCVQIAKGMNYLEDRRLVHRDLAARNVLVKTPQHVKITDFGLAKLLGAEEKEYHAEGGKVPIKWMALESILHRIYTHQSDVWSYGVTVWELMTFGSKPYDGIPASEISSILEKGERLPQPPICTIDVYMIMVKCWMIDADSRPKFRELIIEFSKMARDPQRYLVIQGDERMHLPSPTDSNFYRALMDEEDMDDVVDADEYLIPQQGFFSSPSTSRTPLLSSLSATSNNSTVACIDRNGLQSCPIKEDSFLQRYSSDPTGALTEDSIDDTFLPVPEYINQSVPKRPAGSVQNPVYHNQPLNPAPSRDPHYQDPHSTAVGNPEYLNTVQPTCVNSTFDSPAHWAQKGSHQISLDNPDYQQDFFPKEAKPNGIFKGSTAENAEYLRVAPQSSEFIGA
Method: (§2) The degree of inhibition of a panel of kinases is determined using the in vitro HotSpot kinase assay (purified enzymes, ^33P-ATP, an appropriate substrate and 1 uM ATP).

JAK3 = target: T1, JAK3 (Homo sapiens, UniProt P52333); test: Inhibition of a panel of kinases, in vitro HotSpot kinase assay: JAK3
T1 sequence (P52333 1-1124): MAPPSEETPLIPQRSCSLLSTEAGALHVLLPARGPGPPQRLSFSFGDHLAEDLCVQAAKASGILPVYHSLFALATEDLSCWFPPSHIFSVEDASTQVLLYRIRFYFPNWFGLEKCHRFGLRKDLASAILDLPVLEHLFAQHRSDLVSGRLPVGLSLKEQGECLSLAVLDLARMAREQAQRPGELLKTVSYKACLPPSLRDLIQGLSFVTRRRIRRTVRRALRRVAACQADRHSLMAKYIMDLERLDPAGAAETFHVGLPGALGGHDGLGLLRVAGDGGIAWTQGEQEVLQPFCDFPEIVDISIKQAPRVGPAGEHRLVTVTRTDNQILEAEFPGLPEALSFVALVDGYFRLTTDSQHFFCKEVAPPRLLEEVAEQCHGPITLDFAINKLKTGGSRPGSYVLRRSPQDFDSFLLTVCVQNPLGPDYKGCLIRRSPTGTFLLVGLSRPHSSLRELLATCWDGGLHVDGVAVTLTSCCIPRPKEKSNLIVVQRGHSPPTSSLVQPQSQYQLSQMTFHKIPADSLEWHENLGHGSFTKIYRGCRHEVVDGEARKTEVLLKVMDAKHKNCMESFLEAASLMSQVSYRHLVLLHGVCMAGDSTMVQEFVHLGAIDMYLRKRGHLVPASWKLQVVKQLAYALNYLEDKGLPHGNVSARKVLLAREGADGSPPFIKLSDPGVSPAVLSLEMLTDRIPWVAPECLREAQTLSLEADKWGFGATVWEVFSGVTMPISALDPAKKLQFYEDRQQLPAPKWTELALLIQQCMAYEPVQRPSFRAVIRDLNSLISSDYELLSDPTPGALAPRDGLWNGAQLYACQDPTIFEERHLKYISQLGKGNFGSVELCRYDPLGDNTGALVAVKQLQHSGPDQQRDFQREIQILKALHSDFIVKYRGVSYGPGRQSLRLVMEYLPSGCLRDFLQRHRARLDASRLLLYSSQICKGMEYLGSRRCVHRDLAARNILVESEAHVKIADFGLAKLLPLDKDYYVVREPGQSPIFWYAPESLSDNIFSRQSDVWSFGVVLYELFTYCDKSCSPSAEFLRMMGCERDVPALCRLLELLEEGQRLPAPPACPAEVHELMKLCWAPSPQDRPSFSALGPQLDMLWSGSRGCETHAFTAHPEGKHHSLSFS
Method: as §2

Chain of Btk (Q06187 whole entry): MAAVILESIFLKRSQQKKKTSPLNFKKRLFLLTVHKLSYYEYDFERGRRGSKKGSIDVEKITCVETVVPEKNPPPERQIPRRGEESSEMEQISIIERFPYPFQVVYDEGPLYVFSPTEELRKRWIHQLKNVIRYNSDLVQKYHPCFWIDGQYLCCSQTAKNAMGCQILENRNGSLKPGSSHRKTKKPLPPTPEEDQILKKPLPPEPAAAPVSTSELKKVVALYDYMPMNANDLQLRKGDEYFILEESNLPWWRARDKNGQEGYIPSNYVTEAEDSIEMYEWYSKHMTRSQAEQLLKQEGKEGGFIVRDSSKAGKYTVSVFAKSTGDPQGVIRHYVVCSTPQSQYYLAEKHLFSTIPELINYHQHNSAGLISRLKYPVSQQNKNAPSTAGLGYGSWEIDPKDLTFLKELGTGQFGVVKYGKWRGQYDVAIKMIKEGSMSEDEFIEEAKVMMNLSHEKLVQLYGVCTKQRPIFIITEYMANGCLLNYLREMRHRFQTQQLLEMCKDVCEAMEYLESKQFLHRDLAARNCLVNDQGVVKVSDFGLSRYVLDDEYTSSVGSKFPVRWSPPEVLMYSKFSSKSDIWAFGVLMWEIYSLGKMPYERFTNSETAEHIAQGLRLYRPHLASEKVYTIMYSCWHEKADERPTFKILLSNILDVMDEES

pIC50 (Btk)	pIC50 (Lck)	pIC50 (EGFR)	pIC50 (JAK3)	Compound
> 7.00	6.00 to 7.00	> 7.00	> 7.00	C=CC(=O)N1CCC[C@@H](Nc2n[nH]c3nccc(Oc4cccc(C(=O)Nc5cc(C(F)(F)F)ccn5)c4)c23)C1 [compound 191]
> 7.00	6.00 to 7.00	5.00 to 6.00	< 5.00	CNC(=O)C(=O)N1CCC[C@@H](Nc2n[nH]c3nccc(Oc4ccc(C(=O)Nc5cc(C)ccn5)cc4)c23)C1 [compound 97, 4-[(3-{[(3R)-1-[(methylcarbamoyl)carbonyl]piperidin-3-yl]amino}-1H-pyrazolo[3,4-b]pyridin-4-yl)oxy]-N-(4-methylpyridin-2-yl)benzamide]
> 7.00	< 5.00	5.00 to 6.00	< 5.00	CCNC(=O)N1CCC[C@@H](Nc2n[nH]c3nccc(Oc4ccc(C(=O)Nc5ccccn5)cc4)c23)C1 [compound 229, (3R)-N-ethyl-3-[(4-{4-[(pyridin-2-yl)carbamoyl]phenoxy}-1H-pyrazolo[3,4-b]pyridin-3-yl)amino]piperidine-1-carboxamide]
> 7.00	< 5.00	< 5.00	< 5.00	CN(C)C(=O)N1CCC[C@@H](Nc2n[nH]c3nccc(Oc4ccc(C(=O)Nc5ccccn5)cc4)c23)C1 [compound 233, (3R)-N,N-dimethyl-3-[(4-{4-[(pyridin-2-yl)carbamoyl]phenoxy}-1H-pyrazolo[3,4-b]pyridin-3-yl)amino]piperidine-1-carboxamide]
6.00 to 7.00	5.00 to 6.00	< 5.00	< 5.00	Cc1cccc(NC(=O)c2ccc(Oc3ccnc4[nH]nc(N[C@@H]5CCCN(C(=O)C6(C)COC6)C5)c34)cc2)n1 [compound 113, 4-[(3-{[(3R)-1-(3-methyloxetane-3-carbonyl)piperidin-3-yl]amino}-1H-pyrazolo[3,4-b]pyridin-4-yl)oxy]-N-(6-methylpyridin-2-yl)benzamide]
> 7.00	> 7.00	5.00 to 6.00	< 5.00	Cc1ccnc(NC(=O)c2ccc(Oc3ccnc4[nH]nc(N[C@@H]5CCCN(C(=O)CCCN(C)C)C5)c34)cc2)c1 [compound 95]
> 7.00	6.00 to 7.00	> 7.00	> 7.00	C=CC(=O)N1CCC[C@@H](Nc2n[nH]c3nccc(Oc4ccc(C(=O)Nc5nc6ccccc6s5)cc4)c23)C1 [compound 162]
> 7.00	6.00 to 7.00	5.00 to 6.00	< 5.00	CCOC(=O)N1CCC[C@@H](Nc2n[nH]c3nccc(Oc4ccc(C(=O)Nc5cc(C)ccn5)cc4)c23)C1 [compound 108, ethyl (3R)-3-[(4-{4-[(4-methylpyridin-2-yl)carbamoyl]phenoxy}-1H-pyrazolo[3,4-b]pyridin-3-yl)amino]piperidine-1-carboxalate]
> 7.00	5.00 to 6.00	6.00 to 7.00	5.00 to 6.00	C=CC(=O)N1CCC[C@@H](Nc2n[nH]c3nccc(Oc4ccc(-c5ncc(C)s5)cc4)c23)C1 [compound 158]
6.00 to 7.00	6.00 to 7.00	< 5.00	< 5.00	Cc1ccnc(NC(=O)c2ccc(Oc3ccnc4[nH]nc(NC5CCN(C(=O)C6(C)CCN(C)CC6)CC5)c34)cc2)c1 [compound 284, 4-(3-(1-(1,4-dimethylpiperidine-4-carbonyl)piperidin-4-ylamino)-1H-pyrazolo[3,4-b]pyridin-4-yloxy)-N-(4-methylpyridin-2-yl)benzamide]
> 7.00	6.00 to 7.00	6.00 to 7.00	6.00 to 7.00	CN(C)C/C=C/C(=O)N(C)[C@H]1CC[C@@H](Nc2n[nH]c3nccc(Oc4cccc(Oc5ccccc5)c4)c23)CC1 [compound 21, (2E)-4-(dimethylamino)-N-methyl-N-[(1s,4s)-4-{[4-(3-phenoxyphenoxy)-1H-pyrazolo[3,4-b]pyridin-3-yl]amino}cyclohexyl]but-2-enamide]
6.00 to 7.00	5.00 to 6.00	< 5.00	< 5.00	Cc1cccc(NC(=O)c2ccc(Oc3ccnc4[nH]nc(N[C@@H]5CCCN(C(=O)C6(C)CCOCC6)C5)c34)cc2)n1 [compound 114, 4-[(3-{[(3R)-1-(4-methyloxane-4-carbonyl)piperidin-3-yl]amino}-1H-pyrazolo[3,4-b]pyridin-4-yl)oxy]-N-(6-methylpyridin-2-yl)benzamide]
6.00 to 7.00	> 7.00	5.00 to 6.00	6.00 to 7.00	C=CC(=O)N1CC[C@H](Nc2n[nH]c3nccc(Oc4cccc(C(=O)Nc5ccc(C(C)C)c(C)c5)c4)c23)C1 [compound 126, N-[3-methyl-4-(propan-2-yl)phenyl]-3-[(3-{[(3S)-1-(prop-2-enoyl)pyrrolidin-3-yl]amino}-1H-pyrazolo[3,4-b]pyridin-4-yl)oxy]benzamide]
> 7.00	5.00 to 6.00	< 5.00	5.00 to 6.00	CC#CC(=O)N1CCC[C@@H](Nc2n[nH]c3nccc(Oc4ccc(C(=O)Nc5ncc(C)s5)cc4)c23)C1 [compound 141]
> 7.00	6.00 to 7.00	< 5.00	< 5.00	Cc1ccnc(NC(=O)c2ccc(Oc3ccnc4[nH]nc(N[C@@H]5CCCN(C(=O)C6(C)CCN(C)CC6)C5)c34)cc2)c1 [compound 283, (R)-4-(3-(1-(1,4-dimethylpiperidine-4-carbonyl)piperidin-3-ylamino)-1H-pyrazolo[3,4-b]pyridin-4-yloxy)-N-(4-methylpyridin-2-yl)benzamide]
> 7.00	< 5.00	5.00 to 6.00	5.00 to 6.00	C=CC(=O)N1CCC[C@@H](Nc2n[nH]c3nccc(Oc4ccc(-c5nc(C(F)(F)F)c[nH]5)cc4)c23)C1 [compound 154]
> 7.00	> 7.00	6.00 to 7.00	> 7.00	CN(C)CCCC(=O)N1CCC[C@@H](Nc2n[nH]c3nccc(Oc4ccc(C(=O)Nc5nc6ccccc6s5)cc4)c23)C1 [compound 172]
> 7.00	6.00 to 7.00	6.00 to 7.00	< 5.00	Cc1cc(Oc2ccnc3[nH]nc(N[C@@H]4CCCN(C(=O)/C=C/CN(C)C5CC5)C4)c23)ccc1Oc1ccccc1 [compound 156]
> 7.00	> 7.00	> 7.00	> 7.00	C=CC(=O)N1CCC[C@@H](Nc2n[nH]c3nccc(Oc4cccc(C(=O)Nc5ccc(C(C)C)c(C)c5)c4)c23)C1 [compound 250, (R)-3-(3-(1-acryloylpiperidin-3-ylamino)-1H-pyrazolo[3,4-b]pyridin-4-yloxy)-N-(4-isopropyl-3-methylphenyl)benzamide]
> 7.00	6.00 to 7.00	> 7.00	> 7.00	C=CC(=O)N1CCC[C@@H](Nc2n[nH]c3nccc(Oc4ccc(C(=O)Nc5ncc(CC)s5)cc4)c23)C1 [compound 179]
6.00 to 7.00	5.00 to 6.00	< 5.00	< 5.00	CCNC(=O)N1CCC[C@@H](Nc2n[nH]c3nccc(Oc4ccc(-c5nc6ccccc6s5)cc4)c23)C1 [compound 216, (3R)-3-({4-[4-(1,3-benzothiazol-2-yl)phenoxy]-1H-pyrazolo[3,4-b]pyridin-3-yl}amino)-N-ethylpiperidine-1-carboxamide]
> 7.00	6.00 to 7.00	6.00 to 7.00	< 5.00	CN1CCC(C(=O)N2CC[C@@H](Nc3n[nH]c4nccc(Oc5ccc(C(=O)Nc6cc(C(F)(F)F)ccn6)cc5)c34)C2)CC1 [compound 199, 4-[(3-{[1-(1-methylpiperidin-4-carbonyl)pyrrolidin-3-yl]amino}-1H-pyrazolo[3,4-b]pyridin-4-yl)oxy]-N-[4-(trifluoromethyl)pyridin-2-yl]benzamide]
> 7.00	6.00 to 7.00	5.00 to 6.00	5.00 to 6.00	CC#CC(=O)N1CCC[C@@H](Nc2n[nH]c3nccc(Oc4ccc(C(=O)Nc5ncc(CC)s5)cc4)c23)C1 [compound 177]

Reference: patent US9580416B2, “Inhibitors of Bruton's tyrosine kinase” (PHARMACYCLICS LLC, priority 2014, dated 2017)
